Laboratory results as given in patent publication US20150250883A1, “COMPOSITIONS AND METHODS TO IMPROVE THE HOMING AND GRAFTING OF HEMATOPOETIC STEM CELLS” (7 HILLS PHARMA, LLC, priority 2014, published 2015).

Tests used:
[1] = system: Jurkat cells (integrin expressing) adhering to immobilized CS1-BSA; assay: Static adhesion of integrin expressing cells to an immobilized integrin ligand; format: cell-based
Experimental: The effective concentration of a representative agonist compound, THI0019, in a cell carrier was evaluated by a static adhesion of integrin expressing cells to an immobilized integrin ligand in vitro, as described below.
The effective concentration of THI0019, a representative agonist compound used in this example, was evaluated by a static adhesion of integrin expressing cells to an immobilized integrin ligand. The 25 amino acid alternatively spliced sequence of fibronectin named connecting segment 1 (CS1) was synthesized and conjugated to BSA. CS1-BSA at 0.3 μg/mL in 50 μL of a representative cell carrier was added to wells of a 96-well plate and allowed to coat overnight at 4° C. The representative cell carrier is isotonic Tris Buffered Saline comprising 50 mM Tris-HCl (pH 7.4), 150 mM NaCl and 1 mM MgCl2 and is a model isotonic buffer. Plates were washed with the cell carrier and blocked with 2 wt. % BSA for 1 h. 32×10^6 of Jurkat cells were labeled for 30 minutes with calcein-AM (Molecular Probes), washed 2 times with the cell carrier, resuspended in 8 mL of the cell carrier, and divided equally between two tubes. One tube of the cell suspension was treated with 40 μL DMSO (control) and the other with 40 μL of 1 mM THI0019 in DMSO. The control containing tube and the THI0019 containing tube were each further divided equally among four eppendorf tubes (Tubes 1-4 for each group) such that each contained 4×10^6 of the cells in 1 mL of the control or the THI0019 containing cell carrier. Tube 1 from each group was not further processed (“no treatment”). Tubes 2-4 were centrifuged at 100×G for 5 min at RT. The supernatant was carefully removed with a pipet and each cell pellet was resuspended in 1 mL of the cell carrier without the agonist compound. Tube 2 was not further processed (“pellet”). Tubes 3-4 were again centrifuged at 100×G for 5 min. The supernatant was carefully removed with a pipet and each cell pellet was resuspended in 1 mL of the cell carrier without the agonist compound. Tube 3 was not further processed (“1 wash”). Tube 4 was again centrifuged at 100×G for 5 min. The supernatant was carefully removed with a pipet and the cell pellet was resuspended in 1 mL of the cell carrier without the agonist compound. Tube 4 was not further processed (“2 wash”). The final concentrations of THI0019 in the respective cell carriers for no treatment, pellet, 1 wash, and 2 wash were 10 μM, […]. […] After 30-minute incubation at 37° C., the plates were washed 3 times with binding cell carrier, the adherent cells were lysed, and fluorescence was measured on a Tecan Safire plate reader. The number of cells bound was determined by standard curves correlating fluorescence to cell number generated with the same mixtures used for the assay.

[2] = system: TF-1 cells on immobilized recombinant human VCAM-1; details: interpretation of cited detachment assay data; cited from earlier work
[3] = static adhesion, FIG. 1, printed as 'at least 1 femtomolar (fM) to 1 μM'

Structure (SMILES): CCCC[C@@H](COC(=O)N(Cc1cccs1)Cc1cccs1)NC(=O)N[C@@H](CC(=O)OC)c1ccc2c(c1)OCO2 [THI0019, methyl (6S,10S)-10-(1,3-benzodioxol-5-yl)-6-butyl-3,8-dioxo-1-(2-thienyl)-2-(2-thienylmethyl)-4-oxa-2,7,9-triazadodecan-12-oate]
- ability of agonist treated cells to bind to a cognate ligand after exposure ([1]; after exposure to the agonist in cell carrier): enhanced ability to bind to a cognate ligand within minutes
- adhesion potential of cells after dilution/washing of compound from cell carrier ([1]; compound reduced by multiple 1000-fold serial dilutions to as low as 1 fM in cell carrier): retained the ability to exhibit enhanced adhesion potential
- effective amount of the agonist compound present in the cell carrier, lower end of range [1, 3]: 1 fM
- effective amount of the agonist compound present in the cell carrier, upper end of range [1, 3]: 1 µM
- effect on VCAM-1 / VLA-4 interaction (applicant's reading of Vanderslice data) [2]: stabilizes the VCAM-1 and VLA-4 interaction and upon endogenous ligand binding, the compound is displaced
